Experimental data: patent US20250243215A1, “INHIBITORS OF EPIDERMAL GROWTH FACTOR RECEPTOR” (National Health Research Institutes, priority 2024, published 2025)

Key:
[1] = test system: A431 (wild-type EGFR overexpressing) cells; experiment: Cell proliferation assay (MTS), A431; assay type: cell-based; conditions: Homo sapiens, A-431, 96 h exposure
Description: (§1) A431 (wild-type EGFR overexpressing) and H1975 (double-mutant overexpressing) cells were exposed to test compounds for 96 h and the cell proliferation was determined by the MTS method.

[2] = test system: H1975 (double-mutant overexpressing) cells; experiment: Cell proliferation assay (MTS), H1975; assay type: cell-based; conditions: Homo sapiens, NCI-H1975, 96 h exposure
Description: as §1

IC50 [1] [µM]	IC50 [2] [µM]	SMILES
0.2 to 5	< 0.2	C=CC(=O)Nc1cccc(-c2c(-c3ccccc3)oc3ncnc(N4CCC4)c23)c1 [Compound 61, N-{3-[4-(Azetidin-1-yl)-6-phenylfuro[2,3-d]pyrimidin-5-yl]phenyl}prop-2-enamide]
0.2 to 5	< 0.2	C=CC(=O)Nc1cc(-c2c(-c3ccccc3)oc3ncnc(N[C@@H]4CCCC[C@@H]4O)c23)ccc1N(C)CCN(C)C [Compound 53, N-[2-{[2-(Dimethylamino)ethyl](methyl)amino}-5-(4-{[(1R,2S)-2-hydroxycyclohexyl]amino}-6-phenylfuro[2,3-d]pyrimidin-5-yl)phenyl]prop-2-enamide]
0.2 to 5	< 0.2	C=CC(=O)Nc1cc(-c2c(-c3ccccc3)oc3ncnc(Nc4ccccc4)c23)ccc1N(C)CCN(C)C [Compound 43, N-(2-{[2-(Dimethylamino)ethyl](methyl)amino}-5-[6-phenyl-4-(phenylamino)furo[2,3-d]pyrimidin-5-yl]phenyl)prop-2-enamide]
0.2 to 5	< 0.2	C=CC(=O)Nc1cc(-c2c(-c3ccccc3)oc3ncnc(N[C@H]4CC[C@H](O)CC4)c23)ccc1N(C)CCN(C)C [Compound 55, N-(2-{[2-(Dimethylamino)ethyl](methyl)amino}-5-{4-[(4-hydroxy-cyclohexyl)amino]-6-phenylfuro[2,3-d]pyrimidin-5-yl}phenyl)prop-2-enamide]
0.2 to 5	< 0.2	C=CC(=O)Nc1cc(-c2c(-c3ccccc3)oc3ncnc(N[C@H]4CC[C@@H](O)CC4)c23)ccc1N(C)CCN(C)C [Compound 52, N-(2-{[2-(Dimethylamino)ethyl](methyl)amino}-5-{4-[(4-hydroxy-cyclohexyl)amino]-6-phenylfuro[2,3-d]pyrimidin-5-yl}phenyl)prop-2-enamide]

More lines, now with the values behind:

SMILES	IC50 [1] [µM]	IC50 [2] [µM]
C=CC(=O)Nc1cc(-c2c(-c3ccccc3)oc3ncnc(NC4CCCC4)c23)ccc1N1CC[C@@H](N(C)C)C1 [Compound 28, N-{5-[4-(Cyclopentylamino)-6-phenylfuro[2,3-d]pyrimidin-5-yl]-2-[(3R)-3-(dimethylamino)pyrrolidin-1-yl]phenyl}prop-2-enamide]	> 5	0.2 to 5
C=CC(=O)Nc1cc(-c2c(-c3ccccc3)oc3ncnc(NCCc4ccc(O)cc4)c23)ccc1N(C)CCN(C)C [Compound 37, N-[2-{[2-(Dimethylamino)ethyl](methyl)amino}-5-(4-{[2-(4-hydroxyphenyl)ethyl]amino}-6-phenylfuro[2,3-d]pyrimidin-5-yl)phenyl]prop-2-enamide]	0.2 to 5	0.2 to 5
C=CC(=O)Nc1cc(-c2c(-c3ccccc3)oc3ncnc(NCCc4ccc(O)cc4)c23)ccc1N(C)CCN1CCN(C)CC1 [Compound 40, N-[5-(4-{[2-(4-Hydroxyphenyl)ethyl]amino}-6-phenylfuro[2,3-d]pyrimidin-5-yl)-2-{methyl [2-(4-methylpiperazin-1-yl)ethyl]amino}phenyl]prop-2-enamide]	> 5	0.2 to 5
C=CC(=O)Nc1cc(-c2c(-c3ccccc3)oc3ncnc(NCCc4ccc(O)cc4)c23)ccc1N1CCN(C)CC1 [Compound 36, N-[5-(4-{[2-(4-Hydroxyphenyl)ethyl]amino}-6-phenylfuro[2,3-d]pyrimidin-5-yl)-2-(4-methylpiperazin-1-yl)phenyl]prop-2-enamide]	0.2 to 5	0.2 to 5
C=CC(=O)Nc1cc(-c2c(-c3ccc(F)cc3)oc3ncnc(NC4CCCC4)c23)ccc1N(C)CCN(C)C [Compound 42, N-(5-[4-(Cyclopentylamino)-6-(4-fluorophenyl)furo[2,3-d]pyrimi-din-5-yl]-2-{[2-(dimethylamino)ethyl](methyl)amino}phenyl)prop-2-enamide]	0.2 to 5	< 0.2
C=CC(=O)Nc1cc(-c2c(-c3ccccc3)oc3ncnc(NCCc4ccc(S(N)(=O)=O)cc4)c23)ccc1N(C)CCN(C)C [Compound 41, N-(5-[4-({2-[4-(Aminosulfonyl)phenyl]ethyl}amino)-6-phenylfuro-[2,3-d]pyrimidin-5-yl]-2-{[2-(dimethylamino)ethyl](methyl)amino}phenyl)prop-2-enamide]	0.2 to 5	< 0.2
